The data set can be described thus: Solubility in ethanol when preparing stock solution. It is filed as physicochemical. The conditions noted are these: stock solution 20 mg/ml prepared in acetonitrile instead. As for the experimental part:
In another experiment, a liposome comprising the TB4 prodrug (denoted LNP-TB4) was synthesized in the following manner. Briefly, In the first step, a lipid stock solution of POPC (1-palmitoyl-2-oleoyl-glycero-3-phosphocholine), CHOL, and DSPE-PEG, was prepared in ethanol (20 mg/ml) separately. […] The of lipid mixture of POPC, CHOL, TB4+Stearic Acid and DSPE-PEG was mixed together at a molar ratio of 51:29:16.5:3.5, and subsequently diluted with ethanol to get a total lipid concentration of 10 mg/ml. This lipid mixture was heated at 55-60 degree Centigrade using the heating block attachment in the microfluidizer. Similarly, the aqueous phase containing 1 mM PBS buffer was also preheated at 55-60 degree centigrade before passing through the microfluidics cartridge at the flow rate of 5:1 (aqueous:organic phase, lipid mixture). The solvent was removed using dialysis membrane of cut off 12 KDa size (Sigma Aldrich) against DI water for at least 24 hrs. The Dialysis water was changed at least 5 times during the period of 24 hrs. to maximize the removal of the solvent. After the removal of the solvent, the LNP-TB4 was concentrated according to the need using Amicon centrifugal filtration device (cut off size 10 KDa, at 3000 g).
In another experiment, a liposome comprising the TB4 prodrug (denoted LNP-TB4) was co-formulated with ID3 and synthesized in the following manner. […]

As to `CCCCCCCCCCCCCCCCCC(=O)OCOC(=O)N(C(=O)c1ccc(-c2cc(-c3c[nH]nc3-c3ccccn3)ccn2)cc1)C1CCOCC1` [TB4 prodrug], the “solubility in ethanol (in words)” value is recorded as “not soluble in ethanol”.

For the origin of these results see patent US11801304B2, “Formulated and/or co-formulated liposome compositions containing TFGB antagonist prodrugs useful in the treatment of cancer and methods thereof” (Nammi Therapeutics, Inc., priority 2020, dated 2023).
